We go through three compounds from patent US20250074943A1, “DLL3 BINDING PEPTIDES AND USES THEREOF” (AMGEN INC., priority 2021, published 2025).

Test [1] concerns the target T1, cell-surface hDLL3 (CHO cells) (Homo sapiens, UniProt Q9NYJ7).
T1 construct: expressed in transfected cells; host or cells: CHO (CHO-huDLL3)
T1 sequence (Q9NYJ7 27-618): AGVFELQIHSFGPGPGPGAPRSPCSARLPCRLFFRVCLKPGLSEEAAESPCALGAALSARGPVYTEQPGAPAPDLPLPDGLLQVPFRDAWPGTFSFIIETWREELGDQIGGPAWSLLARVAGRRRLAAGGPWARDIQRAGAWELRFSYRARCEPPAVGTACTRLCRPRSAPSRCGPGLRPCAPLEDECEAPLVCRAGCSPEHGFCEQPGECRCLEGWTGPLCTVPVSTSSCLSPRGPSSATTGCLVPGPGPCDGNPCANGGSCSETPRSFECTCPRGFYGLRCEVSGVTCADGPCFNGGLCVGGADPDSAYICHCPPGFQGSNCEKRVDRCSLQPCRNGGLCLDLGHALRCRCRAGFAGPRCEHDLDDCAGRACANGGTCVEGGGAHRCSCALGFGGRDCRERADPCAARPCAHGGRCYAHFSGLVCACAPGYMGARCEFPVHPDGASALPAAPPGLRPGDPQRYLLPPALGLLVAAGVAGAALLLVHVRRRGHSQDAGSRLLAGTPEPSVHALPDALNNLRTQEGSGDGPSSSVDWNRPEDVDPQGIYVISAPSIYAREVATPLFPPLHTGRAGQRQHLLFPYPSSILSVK
The test can be described thus: Flow cytometry binding of fluorescence labelled peptides. In kind it is cell-based. The following applies: 100 nM AF647-labelled peptide; FIG. 1.
Experimental: HEK293-huDLL3, CHO-huDLL3 and the corresponding parental cell lines were detached with EDTA 2.5 mM and re-suspended at 1.8×10^6 cells/ml in FACS buffer (1×PBS, 2% FBS), distributed at 500 μl per testing tube and pelleted 5 min at 1300 rpm in a Heraeus Multifuge X3R centrifuge. […] After 1 hour incubation at room temperature, cells were washed once with FACS buffer, centrifuged and re-suspended in FACS buffer/1% formaldehyde. Samples were acquired on a FACS ARIA flow cytometer (Becton Dickinson) and data analysed by FACS Express software.

Another test deals with T2, DLL3 (Homo sapiens, UniProt Q9NYJ7).
T2 construct: The recombinant DLL3 ectodomain (rhDLL3-Fc) was biotinylated; Fc
T2 sequence (Q9NYJ7 27-492 limits assumed): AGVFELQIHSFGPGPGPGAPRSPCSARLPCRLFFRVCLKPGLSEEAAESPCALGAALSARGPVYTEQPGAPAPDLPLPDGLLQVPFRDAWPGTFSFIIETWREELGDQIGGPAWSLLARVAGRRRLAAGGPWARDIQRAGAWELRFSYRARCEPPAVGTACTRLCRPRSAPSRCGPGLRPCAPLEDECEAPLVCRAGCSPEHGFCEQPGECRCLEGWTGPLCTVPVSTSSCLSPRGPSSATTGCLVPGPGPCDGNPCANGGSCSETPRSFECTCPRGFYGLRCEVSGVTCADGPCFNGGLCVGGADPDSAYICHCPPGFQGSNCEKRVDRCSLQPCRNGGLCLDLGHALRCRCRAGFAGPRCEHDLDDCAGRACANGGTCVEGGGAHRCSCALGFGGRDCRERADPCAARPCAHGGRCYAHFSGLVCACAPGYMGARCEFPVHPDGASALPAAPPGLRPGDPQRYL
Nature of the test: Binding of peptides with linkers and/or fluorescent agent to DLL3 (BLI, SPR; Table 6). The method, then:
Binding kinetic assays were performed using Bio-layer interferometry (BLI) technology. The recombinant DLL3 ectodomain (rhDLL3-Fc) was biotinylated using EZ-Link Sulfo-NHS-LC-LC-Biotin Kit according to the manufacturer's protocol (Pierce by Thermo Fisher Scientific). The recombinant protein was incubated with an excess of NHS-LC-LC Biotin ester, in a molar ratio of 1:3 (protein: biotin), at 25° C. for 90 min. The un-reacted biotin ester was removed by subsequent buffer exchange on 0.5 ml Zeba spin desalting columns 7K MWCO (Pierce by Thermo Fisher Scientific).
The off-rate screening of the peptides was done using a Biacore T200 instrument (Cytiva, Sweden). […] Peptides were diluted at 300 nM in PBS-P+1× buffer (Cytiva, Sweden) supplemented with 1% DMSO and 0.1% BSA, then injected over the ligand for five minutes at 30 μl/min, finally dissociation allowed for 1 h. Sensorgrams were analyzed by Biacore T200 Evaluation Software 3.0 (Cytiva, Sweden): specific binding was obtained by subtracting unspecific binding to naked biosensors and a zero analyte concentration made of binding assay buffer (double referencing). Kinetic parameters of koff were measured using a global fitting according to 1:1 Langmuir binding isotherm equation.

Bridge positions count the residues as written; N and C are the ends. Peptide text beside a SMILES is read from it. * marks the point of attachment. X13 = NCCCOCCOCCOCCCNC(=O)CCC(=O)NCCCOCCOCCOCCCNC(=O)CCC(=O)NCCCC[C@H](NC(=O)CCC(=O)NCCCOCCOCCOCCCN*)C(N)=O; X11 = NCCCC[C@H](NC(=O)CCC(=O)NCCCOCCOCCOCCCN*)C(N)=O

In general, Kd refers to the free concentration of one partner at which half of the binding sites on the other are occupied at equilibrium, for simple one-to-one binding. Turning to `CC(C)[C@H](NC(=O)[C@@H](NC(=O)[C@H](CCC(=O)O)NC(=O)[C@H](C)N)[C@@H](C)O)C(=O)N[C@@H](CCC(=O)O)C(=O)N[C@@H](Cc1ccccc1)C(=O)N[C@@H](Cc1c[nH]c2ccccc12)C(=O)NCC(=O)N[C@H]1CSSC[C@@H](C(=O)N[C@@H](Cc2c[nH]c3ccccc23)C(=O)N[C@@H](Cc2c[nH]c3ccccc23)C(=O)NCCCOCCOCCOCCCNC(=O)CCC(=O)N[C@@H](CCCCn2nnc3c2-c2ccccc2CN(C(=O)CCNC(=O)CCCCC[N+]2=C(/C=C/C=C/C=C4/N(CCCS(=O)(=O)O)c5ccc(S(=O)(=O)O)cc5C4(C)C)C(C)(CCCS(=O)(=O)O)c4cc(S(=O)(=O)[O-])ccc42)c2ccccc2-3)C(N)=O)NC(=O)[C@H]([C@@H](C)O)NC(=O)[C@H](CCC(=O)O)NC(=O)[C@H](CC(N)=O)NC(=O)CNC(=O)[C@H](Cc2c[nH]c3ccccc23)NC(=O)[C@H]([C@@H](C)O)NC(=O)CNC(=O)[C@H]([C@@H](C)O)NC1=O` (stereo partly drawn) [PepSP1215], the “binding to cells expressing hDLL3” value in test [1] is “binding”. Besides, the dissociation constant Kd at DLL3 came to 11.6 nM.
In the case of `CC(=O)N[C@@H](C)C(=O)N[C@@H](CCC(=O)O)C(=O)N[C@H](C(=O)N[C@H](C(=O)N[C@@H](CCC(=O)O)C(=O)N[C@@H](Cc1ccccc1)C(=O)N[C@@H](Cc1c[nH]c2ccccc12)C(=O)N[C@@H](Cc1c[nH]c2ccccc12)C(=O)N[C@H]1CSSC[C@@H](C(=O)N[C@H](C(=O)N[C@@H](Cc2c[nH]c3ccccc23)C(=O)NCC(=O)NCC(=O)NCCCOCCOCCOCCCNC(=O)CCC(=O)N[C@@H](CCCCN)C(N)=O)[C@@H](C)O)NC(=O)[C@H]([C@@H](C)O)NC(=O)[C@H](Cc2c[nH]c3ccccc23)NC(=O)[C@H](CC(N)=O)NC(=O)[C@H](CCC(=O)O)NC(=O)[C@H](CO)NC(=O)[C@H](CC(N)=O)NC(=O)CNC(=O)[C@H](CC(N)=O)NC1=O)C(C)C)[C@@H](C)O` [PepSP1324] (Ac-AETVEFWWCNGNSENWTCTWGG-X11; disulfide 9-18 (inferred)), on DLL3, binding was put at a Kd of 29 ± 16 nM and the RT is recorded as 189.3 ± 73^.
Consider `CC(=O)N[C@@H](C)C(=O)N[C@@H](CCC(=O)O)C(=O)N[C@H](C(=O)N[C@H](C(=O)N[C@@H](CCC(=O)O)C(=O)N[C@@H](Cc1ccccc1)C(=O)N[C@@H](Cc1c[nH]c2ccccc12)C(=O)N[C@@H](Cc1c[nH]c2ccccc12)C(=O)N[C@H]1CSSC[C@@H](C(=O)N[C@H](C(=O)N[C@@H](Cc2c[nH]c3ccccc23)C(=O)NCC(=O)NCC(=O)NCCCOCCOCCOCCCNC(=O)CCC(=O)N[C@@H](CCCCNC(=O)CCC(=O)NCCCOCCOCCOCCCNC(=O)CCC(=O)NCCCOCCOCCOCCCN)C(N)=O)[C@@H](C)O)NC(=O)[C@H]([C@@H](C)O)NC(=O)[C@H](Cc2c[nH]c3ccccc23)NC(=O)[C@H](CC(N)=O)NC(=O)[C@H](CCC(=O)O)NC(=O)[C@H](CO)NC(=O)[C@H](CC(N)=O)NC(=O)CNC(=O)[C@H](CC(N)=O)NC1=O)C(C)C)[C@@H](C)O` [PepSP1342] (Ac-AETVEFWWCNGNSENWTCTWGG-X13; disulfide 9-18 (inferred)), for which, at DLL3, the Kd is 42 ± 8 nM and the RT came to 198.9 ± 41.1.
